The source of these data is patent US10857170B1, “Molecules, compositions and methods for modulation of SIRT6” (SirTLab Corporation, priority 2015, dated 2020).

The test deals with T1, Human recombinant SIRT6 (Homo sapiens, UniProt Q8N6T7).
T1 construct: six-histidine (His6); made in house; host or cells: Escherichia coli BL21
Kind of test: SIRT6 enzymatic activity assay (fluorogenic de-myristoylation of histone H3 peptide-AMC, trypsin-coupled). Particulars: for % activity 20 uM / % activity 100 uM: Table 2, percentage of signal increase relative to control wells; for % activity 20 uM: compound 20 uM; for % activity 100 uM: compound 100 uM; for % activity (20 micromolar only): Table 3, compound 20 micromolar. Type of test: biochemical. Here is the method:
Human recombinant SIRT6 (sequence identifier: CAG33481.1; GI:4814651) was expressed in large scale in Escherichia coli strain BL21 as a six-histidine-tagged protein, after transformation of the expression plasmid pET28-SIRT6. The SIRT6 enzyme was purified from the bacteria culture broth in a two-step strategy. The first purification step was carried out by cation exchange chromatography on a HiTrap CM-Sepharose column (GE Healthcare) using an FPLC system. The second purification step was performed by immobilized metal ion affinity chromatography (IMAC) using a cobalt affinity column (Clontech).
The enzymatic activity assay is carried out in 96 or 384-well microplates using the purified recombinant SIRT6 and a fluorophore-labeled peptide substrate: 7-amino-4-methylcoumarin (AMC) that is quenched through conjugation to the C-terminal end of a Lysin-myristoylated histone H3 peptide. The activity assay procedure requires two steps, both performed in the same microplate. In the first step, the substrate is incubated with the purified SIRT6 protein along with the co-substrate nicotinamide adenine dinucleotide (NAD+). Upon de-myristoylation, the liberated ε-amino group of the lysine becomes a trypsin substrate. Treatment with trypsin in the second step releases the fluorophore resulting in an increase in fluorescence. Fluorescence intensity is measured using a fluorescent plate reader (excitation and emission at 370 nm and 450 nm, respectively). The fluorescence signal is directly proportional to SIRT6 enzymatic activity.
In the primary screening, compounds from a library (ChemDiv Inc.) were tested at a single concentration of 20 micromolar for their potential to modulate SIRT6 enzymatic activity. The assay was carried out in 384-well black well plates and all liquid handling was done using a robotic liquid handler. Purified recombinant SIRT6 (1 micromolar) was pre-incubated with each compound (or DMSO in control wells) for 15 minutes at room temperature. The first stage of the assay was initiated by adding a ‘substrate solution’ containing the myristoylated histone H3 peptide and NAD+(for final concentrations of 25 micromolar and 20 micromolar, respectively). After one hour incubation at 37° C., a Trypsin solution (6 mg/mL) was added for 30 minutes at room temperature. Fluorescence intensity was measured using a fluorescent plate reader (Tecan) with excitation at 370 nm and emission at 450 nm. The effect of each tested compound was evaluated by the change in the fluorescence intensity compared to control wells. […] To validate the primary screening results, each of the primary “hits” was re-tested, first at concentration of 20 micromolar in duplicates and later at a serial dilution ranging from 100 to 0.2 micromolar in triplicates.

T1 sequence (Q8N6T7 whole entry): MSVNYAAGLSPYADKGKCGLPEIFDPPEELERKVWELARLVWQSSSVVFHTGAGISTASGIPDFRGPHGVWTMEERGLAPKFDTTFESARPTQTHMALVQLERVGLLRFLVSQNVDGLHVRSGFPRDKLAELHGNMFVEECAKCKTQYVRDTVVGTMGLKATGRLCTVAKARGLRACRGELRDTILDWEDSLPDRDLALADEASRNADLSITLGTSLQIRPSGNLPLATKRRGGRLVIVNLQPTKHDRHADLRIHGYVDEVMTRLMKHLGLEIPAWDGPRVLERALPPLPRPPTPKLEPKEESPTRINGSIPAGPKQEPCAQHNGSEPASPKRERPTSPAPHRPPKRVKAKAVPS

In the case of `C=C(c1ccc(-c2ccc(N3CCCCC3)nc2)cc1)N(C)C` [compound 48], the “% activity 20 uM” value is reported as 40% and the “% activity 100 uM” value is 54%. As for `O=C(c1ccc(-c2ccc(N3CCCCC3)nc2)cc1)N1CCCC1` [compound 49], the “% activity 20 uM” value was found to be 93% and the “% activity 100 uM” value worked out at 75%. For the compound `O=C(Nc1ccc2nncn2c1)c1cccc(Cl)c1` [compound 50], the “% activity 20 uM” value is 30% and the “% activity 100 uM” value was 51%.

For `CC(C)(C)c1ccc(C(=O)Nc2ccc3nnc(C4CCC4)n3c2)cc1` [compound 51], the “% activity 20 uM” value was found to be 23% and the “% activity 100 uM” value is reported as 87%. As for `O=C(Nc1ccc2nnc(C3CCC3)n2c1)C1CC1` [compound 52], the “% activity 20 uM” value was found to be 69% and the “% activity 100 uM” value is 142%. Turning to `Cc1nc(Nc2ccc(F)cc2)sc1C(=O)Nc1ccc(F)cc1F` [compound 53], the “% activity 20 uM” value was 36% and the “% activity 100 uM” value is on record as 22%. The matching figures for `Cc1ccc(Nc2nc(C)c(C(=O)Nc3cccc(C(C)C)c3)s2)cc1` [compound 54]: 31% and 11%. Take `COc1cc(NC(=O)c2csc(-c3cn(C)c4ncccc34)n2)cc(OC)c1` [compound 55]: the “% activity 20 uM” value is recorded as 31% and the “% activity 100 uM” value was 37%. For `CCCC1(CO)CCCN1C(=O)c1ccc2cc[nH]c2c1` (centres unmarked) [compound 56], the “% activity 20 uM” value worked out at 30% and the “% activity 100 uM” value is given as 53%.

Regarding `N#Cc1cccc(-c2cn3c(n2)N(C(=O)c2ccncc2)CCC3)c1` [compound 57], the “% activity 20 uM” value is 37% and the “% activity 100 uM” value amounted to 45%. In the same order, the values of `Cc1noc(-c2cccc(OC3CN(C(=O)c4cccc5[nH]ccc45)C3)c2)n1` [compound 58] are 38% and 47%. Take `C=C(C)C1Cc2cc(C(F)(F)F)ccc2N2CCCCC12` (centres unmarked) [compound 59]: the “% activity 20 uM” value is recorded as 89% and the “% activity 100 uM” value is listed as 175%.

Regarding `Cc1nc(-c2cccc(C(F)(F)F)c2)c(N)c(N(C)C2CCN(C)CC2)n1` [compound 60], the “% activity 20 uM” value is reported as 52% and the “% activity 100 uM” value is recorded as 255%. As for `Cc1nc(-c2cccc(F)c2)c(N)c(N(C)C2CCN(C)CC2)n1` [compound 61], the “% activity 20 uM” value came to 50% and the “% activity 100 uM” value was 210%. Turning to `C=C1Cc2cc(C)cc(CC(=O)[C@@H](NS(=C)(=C)c3ccc(C)cc3)[C@H](C)CC)c2C2=C1CCC2` [compound 62], the “% activity 20 uM” value was determined as 28% and the “% activity 100 uM” value came out at 113%. `O=C(NCc1ccc2c(c1)CCC2)c1ccc(NC(=O)C2CC2)cc1N1CCCCCC1` [compound 63]: the “% activity (20 micromolar only)” value came to 38%. Still for that read-out and setting: the same measure for `CCn1c2ccccc2c2nnc(N3CCN(c4cccc(C(F)(F)F)c4)CC3)nc21` [compound 64]: 85%.
